This note sets out measurements from patent publication US9540358B2, “Tricyclic compounds as anticancer agents” (ICAHN SCHOOL OF MEDICINE AT MOUNT SINAI, priority 2011, dated 2017).

SMILES strings stand for the structures.

For orientation: IC50 means the concentration that gives 50% inhibition. Lower therefore signals greater potency.

For one assay, the system named is H1650 lung cancer cells. As to the kind of experiment: Cell viability assay (MTT, IC50 determination). It is filed as cell-based. The settings on record: 48 hours after drug treatment, MTT. On the procedure: 89(22): p. […] H1650 lung cancer cells were plated at 150,000 cells per well in a 12 well plate. Twenty-four hours after plating, cells were treated as described with increasing concentrations of drug and control. Forty-eight hours after drug treatment, cells were treated with 100 μL of 3-(4,5-Dimethylthiazol-2-yl)-2,5-diphenyltetrazolium bromide (MTT) and incubated for 2 hours at 37 C. The MTT solution was subsequently replaced with 300 μL of n-propyl alcohol and re-aliquoted to a 96 well plates. Spectrophotometric analysis of each solution was performed using a 96 well plate reader at 600 nm in triplicate.
With `COc1ccc(S(=O)(=O)NCCCN2c3ccccc3Sc3ccc(Cl)cc32)cc1` [Example 11, N-(3-(2-chloro-10H-phenothiazin-10-yl)propyl)-4-methoxybenzenesulfonamide], the “IC50 (Cell Viability Data)” value is given as “INACTIVE”. On the same count and under the same terms, as for `O=S(=O)(NCCCN1c2ccccc2CCc2ccc(Cl)cc21)c1ccc(Cl)cc1F` [Example 28, N-(3-(3-chloro-10,11-dihydro-5H-dibenzo[b,f]azepin-5-yl)propyl)-4-chloro-2-fluorobenzenesulfonamide], the entry is “INACTIVE”.

Staying with this assay, now noted: Homo sapiens, NCI-H1650, 48 hours after drug treatment, MTT.
With `O=S(=O)(NCCN1c2ccccc2Sc2ccccc21)c1ccc(Cl)cc1` [Example 47, N-(2-(10H-phenothiazin-10-yl)ethyl)-4-chlorobenzenesulfonamide], the IC50 was ~30 µM. As for `CC(CNS(=O)(=O)c1ccc(Cl)cc1)CN1c2ccccc2CCc2ccccc21` (centres unmarked) [Example 68, 4-Chloro-N-(3-(10,11-dihydro-5H-dibenzo[b,f]azepin-5-yl)-2-methylpropyl)benzenesulfonamide], the 50% inhibitory concentration (IC50) was ~20 µM. On the same count and under the same terms, the result for `NCCCN1c2ccccc2CCc2ccccc21` [Example 19, 3-(10,11-dihydro-5H-dibenzo[b,f]azepin-5-yl)propan-1-aminium chloride] reads 24.4 µM; that for `O=S(=O)(NCC(O)CN1c2ccccc2Sc2ccccc21)c1ccc(Cl)cc1` (centres unmarked) [Example 85], ~15 µM; that for `Cc1ccc(S(=O)(=O)NCCCN2c3ccccc3CCc3ccc(Cl)cc32)cc1` [Example 8, N-(3-(3-chloro-10,11-dihydro-5H-dibenzo[b,f]azepin-5-yl)propyl)-4-methylbenzenesulfonamide], 20 µM. The same measure, in the same setting: the result for `O=S(=O)(NCCCN1c2ccccc2CCc2ccc(Cl)cc21)c1cc(Cl)sc1Cl` [Example 62, 2,5-dichloro-N-(3-(3-chloro-10,11-dihydro-5H-dibenzo[b,f]azepin-5-yl)propyl)thiophene-3-sulfonamide] reads ~25 µM; that for `O=S(=O)(NCC(O)CN1c2ccccc2CCc2ccccc21)c1ccc(Cl)cc1` (centres unmarked) [Example 59, 4-Chloro-N-(3-(10,11-dihydro-5H-dibenzo[b,f]azepin-5-yl)-2-hydroxypropyl)benzenesulfonamide], ~25 µM; that for `N#Cc1ccc(S(=O)(=O)NCCC=C2c3ccccc3CCc3ccccc32)cc1` [Example 71, N-(3-(10,11-dihydro-5H-dibenzo[a,d][7]annulen-5-ylidene)propyl)-4-cyanobenzenesulfonamide], 25 µM.

`COc1ccc(S(=O)(=O)NCCCN2c3ccccc3CCc3ccc(Cl)cc32)cc1` [Example 25, N-(3-(3-chloro-10,11-dihydro-5H-dibenzo[b,f]azepin-5-yl)propyl)-4-methoxybenzenesulfonamide]: the IC50 was < 40 µM.

For the molecule `N#Cc1ccc(S(=O)(=O)NCCCN2c3ccccc3CCc3ccc(Cl)cc32)cc1` [Example 22, N-(3-(3-chloro-10,11-dihydro-5H-dibenzo[b,f]azepin-5-yl)propyl)-4-cyanobenzenesulfonamide], the IC50 turned out to be 11.1 µM.

For the molecule `O=S(=O)(NCCCN1c2ccccc2CCc2ccc(Cl)cc21)c1ccc(Cl)cc1` [Example 23, 4-Chloro-N-(3-(3-chloro-10,11-dihydro-5H-dibenzo[b,f]azepin-5-yl)propyl)benzenesulfonamide], the IC50 was ~25 µM. Still for that read-out and setting: as for `O=S(=O)(NCCCN1c2ccccc2Sc2ccc(Cl)cc21)c1cc(F)cc(F)c1` [Example 13], the figure is 18 µM; as for `[N-]=[N+]=Nc1ccc2c(c1)N(CCCNS(=O)(=O)c1ccc(C(F)(F)F)cc1)c1ccccc1CC2` [Example 44, N-(3-(3-azido-10,11-dihydro-5H-dibenzo[b,f]azepin-5-yl)propyl)-4-(trifluoromethyl)benzenesfulfonamide], ~30 µM; as for `O=S(=O)(NCCCN1c2ccc(Cl)cc2CCc2cc(Cl)ccc21)c1ccc(OC(F)(F)F)cc1` [Example 53, 4-Trifluoromethoxy-N-(3-(2,8-dichloro-10,11-dihydro-5H-dibenzo[b,f]azepin-5-yl)propyl)benzenesulfonamide], ~10 µM. `Cc1ccc(S(=O)(=O)NCCCN2c3ccccc3Sc3ccc(Cl)cc32)cc1` [Example 3, N-(3-(2-chloro-10H-phenothiazin-10-yl)propyl)-4-methylbenzenesulfonamide]: the half-inhibitory concentration (IC50) came to 20 µM. Same read-out and setting: the result for `O=S(=O)(NCCN1c2ccccc2CCc2ccc(Cl)cc21)c1ccc(C(F)(F)F)cc1` [Example 34, N-(2-(3-chloro-10,11-dihydro-5H-dibenzo[b,f]azepin-5-yl)ethyl)-4-(trifluoromethyl)benzenesulfonamide] reads ~20 µM; that for `CS(=O)(=O)c1ccc(S(=O)(=O)NCCCN2c3ccccc3CCc3ccc(Cl)cc32)cc1` [Example 24, N-(3-(3-chloro-10,11-dihydro-5H-dibenzo[b,f]azepin-5-yl)propyl)-4-(methylsulfonyl)benzenesulfonamide], 15.1 µM. Still for that read-out and setting: as for `CS(=O)(=O)Nc1ccc2c(c1)N(CCCNS(=O)(=O)c1ccc(OC(F)(F)F)cc1)c1ccccc1CC2` [Example 87], the figure is ~15 µM; as for `O=S(=O)(NCCCN1c2ccccc2CCc2ccccc21)c1ccc(Cl)cc1` [Example 35, 4-chloro-N-(3-(10,11-dihydro-5H-dibenzo[b,f]azepin-5-yl)propyl)benzenesulfonamide], ~20 µM; as for `O=S(=O)(NCCCN1c2ccccc2CCc2ccccc21)c1ccc(C(F)(F)F)cc1` [Example 36, N-(3-(10,11-dihydro-5H-dibenzo[b,f]azepin-5-yl)propyl)-4-(trifluoromethyl)benzenesulfonamide], ~15 µM. On the same count and under the same terms, as for `O=[N+]([O-])c1ccc(S(=O)(=O)NCCCN2c3ccccc3CCc3ccc(Cl)cc32)cc1` [Example 40, N-(3-(3-chloro-10,11-dihydro-5H-dibenzo[b,f]azepin-5-yl)propyl)-4-nitrobenzenesulfonamide], the figure is ~15 µM; as for `O=S(=O)(NCCN1c2ccccc2Sc2ccccc21)c1ccc(OC(F)(F)F)cc1` [Example 46, N-(2-(10H-phenothiazin-10-yl)ethyl)-4-trifluoromethoxybenzenesulfonamide], ~30 µM. In turn, `O=S(=O)(NCCCN1c2ccccc2Sc2ccc(Cl)cc21)c1ccc(Cl)cc1` [Example 15, 4-Chloro-N-(3-(2-chloro-10H-phenothiazin-10-yl)propyl)benzenesulfonamide] yielded an IC50 of 20 µM. With `N#CC(CNS(=O)(=O)c1ccc(OC(F)(F)F)cc1)CN1c2ccccc2CCc2ccccc21` (centres unmarked) [Example 65, N-(2-cyano-3-(10,11-dihydro-5H-dibenzo[b,f]azepin-5-yl)propyl)-4-(trifluoromethoxy)benzenesulfonamide], the IC50 was ~15 µM.

For `O=S(=O)(NCC(O)CN1c2ccccc2CCc2ccc(Cl)cc21)c1ccc(Cl)cc1` (centres unmarked) [Example 57, 4-Chloro-N-(3-(3-chloro-10,11-dihydro-5H-dibenzo[b,f]azepin-5-yl)-2-hydroxypropyl)benzenesulfonamide], the IC50 was ~10 µM. The same measure, in the same setting: as for `O=S(=O)(NCCC=C1c2ccccc2CCc2ccccc21)c1ccc(F)cc1` [Example 72, N-(3-(10,11-dihydro-5H-dibenzo[a,d][7]annulen-5-ylidene)propyl)-4-fluorobenzenesulfonamide], the figure is 20 µM; as for `O=S(=O)(NCC(O)CN1c2ccccc2Sc2ccccc21)c1ccc(OC(F)(F)F)cc1` (centres unmarked) [Example 84], ~25 µM.
